Experimental data reported in ChEMBL document CHEMBL1139078, “ortho-Substituted azoles as selective and dual inhibitors of VEGF receptors 1 and 2” (Bioorg Med Chem Lett, 2007).

Columns and labels:
[1] = Intrinsic permeability across Caco-2 cell monolayers; conditions: human
[2] = biological target: T1, Vascular endothelial growth factor receptor 2 (Homo sapiens, UniProt P35968); experiment: Inhibition of VEGFR2 by cell-based assay; format: functional
[3] = biological target: T1, Vascular endothelial growth factor receptor 2; experiment: Inhibition of VEGFR2 by HTRF assay
[4] = biological target: Vascular endothelial growth factor receptor 1 (Homo sapiens, UniProt P17948); experiment: Inhibition of VEGFR1 by HTRF assay
Chain of Vascular endothelial growth factor receptor 1 (P17948 whole entry, looked up): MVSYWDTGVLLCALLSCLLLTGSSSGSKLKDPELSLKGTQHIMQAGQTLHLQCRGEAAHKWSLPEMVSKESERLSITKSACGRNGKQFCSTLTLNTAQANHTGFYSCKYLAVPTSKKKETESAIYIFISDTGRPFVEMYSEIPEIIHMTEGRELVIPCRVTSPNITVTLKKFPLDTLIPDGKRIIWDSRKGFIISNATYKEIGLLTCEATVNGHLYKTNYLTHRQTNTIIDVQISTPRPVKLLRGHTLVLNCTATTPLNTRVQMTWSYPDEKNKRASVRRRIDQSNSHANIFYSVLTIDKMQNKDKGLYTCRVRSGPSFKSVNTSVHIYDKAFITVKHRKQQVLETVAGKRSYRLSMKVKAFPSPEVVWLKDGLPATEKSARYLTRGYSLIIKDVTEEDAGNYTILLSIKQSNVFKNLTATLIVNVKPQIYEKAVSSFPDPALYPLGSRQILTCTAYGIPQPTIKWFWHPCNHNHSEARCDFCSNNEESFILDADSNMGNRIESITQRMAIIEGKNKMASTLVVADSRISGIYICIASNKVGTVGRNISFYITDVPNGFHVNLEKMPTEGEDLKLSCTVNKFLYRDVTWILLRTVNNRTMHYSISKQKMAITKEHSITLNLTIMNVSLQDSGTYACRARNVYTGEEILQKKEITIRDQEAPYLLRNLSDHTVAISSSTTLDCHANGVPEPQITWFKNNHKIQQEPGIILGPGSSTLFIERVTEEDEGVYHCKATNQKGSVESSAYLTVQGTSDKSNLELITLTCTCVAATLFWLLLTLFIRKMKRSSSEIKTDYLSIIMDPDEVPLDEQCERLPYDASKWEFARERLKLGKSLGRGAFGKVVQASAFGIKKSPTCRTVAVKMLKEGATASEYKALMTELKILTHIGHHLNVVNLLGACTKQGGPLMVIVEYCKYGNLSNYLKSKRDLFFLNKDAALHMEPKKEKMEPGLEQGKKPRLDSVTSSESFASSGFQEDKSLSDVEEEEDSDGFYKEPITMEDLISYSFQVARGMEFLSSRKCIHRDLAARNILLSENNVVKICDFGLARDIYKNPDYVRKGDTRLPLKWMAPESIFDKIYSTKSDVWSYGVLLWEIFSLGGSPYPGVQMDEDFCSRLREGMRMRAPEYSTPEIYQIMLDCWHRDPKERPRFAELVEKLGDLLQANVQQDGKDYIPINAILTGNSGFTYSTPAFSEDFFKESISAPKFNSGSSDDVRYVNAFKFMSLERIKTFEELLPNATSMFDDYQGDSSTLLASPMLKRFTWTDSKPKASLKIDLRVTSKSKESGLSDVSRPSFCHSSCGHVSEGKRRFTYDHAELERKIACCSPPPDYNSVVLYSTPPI

T1 sequence (P35968 whole entry): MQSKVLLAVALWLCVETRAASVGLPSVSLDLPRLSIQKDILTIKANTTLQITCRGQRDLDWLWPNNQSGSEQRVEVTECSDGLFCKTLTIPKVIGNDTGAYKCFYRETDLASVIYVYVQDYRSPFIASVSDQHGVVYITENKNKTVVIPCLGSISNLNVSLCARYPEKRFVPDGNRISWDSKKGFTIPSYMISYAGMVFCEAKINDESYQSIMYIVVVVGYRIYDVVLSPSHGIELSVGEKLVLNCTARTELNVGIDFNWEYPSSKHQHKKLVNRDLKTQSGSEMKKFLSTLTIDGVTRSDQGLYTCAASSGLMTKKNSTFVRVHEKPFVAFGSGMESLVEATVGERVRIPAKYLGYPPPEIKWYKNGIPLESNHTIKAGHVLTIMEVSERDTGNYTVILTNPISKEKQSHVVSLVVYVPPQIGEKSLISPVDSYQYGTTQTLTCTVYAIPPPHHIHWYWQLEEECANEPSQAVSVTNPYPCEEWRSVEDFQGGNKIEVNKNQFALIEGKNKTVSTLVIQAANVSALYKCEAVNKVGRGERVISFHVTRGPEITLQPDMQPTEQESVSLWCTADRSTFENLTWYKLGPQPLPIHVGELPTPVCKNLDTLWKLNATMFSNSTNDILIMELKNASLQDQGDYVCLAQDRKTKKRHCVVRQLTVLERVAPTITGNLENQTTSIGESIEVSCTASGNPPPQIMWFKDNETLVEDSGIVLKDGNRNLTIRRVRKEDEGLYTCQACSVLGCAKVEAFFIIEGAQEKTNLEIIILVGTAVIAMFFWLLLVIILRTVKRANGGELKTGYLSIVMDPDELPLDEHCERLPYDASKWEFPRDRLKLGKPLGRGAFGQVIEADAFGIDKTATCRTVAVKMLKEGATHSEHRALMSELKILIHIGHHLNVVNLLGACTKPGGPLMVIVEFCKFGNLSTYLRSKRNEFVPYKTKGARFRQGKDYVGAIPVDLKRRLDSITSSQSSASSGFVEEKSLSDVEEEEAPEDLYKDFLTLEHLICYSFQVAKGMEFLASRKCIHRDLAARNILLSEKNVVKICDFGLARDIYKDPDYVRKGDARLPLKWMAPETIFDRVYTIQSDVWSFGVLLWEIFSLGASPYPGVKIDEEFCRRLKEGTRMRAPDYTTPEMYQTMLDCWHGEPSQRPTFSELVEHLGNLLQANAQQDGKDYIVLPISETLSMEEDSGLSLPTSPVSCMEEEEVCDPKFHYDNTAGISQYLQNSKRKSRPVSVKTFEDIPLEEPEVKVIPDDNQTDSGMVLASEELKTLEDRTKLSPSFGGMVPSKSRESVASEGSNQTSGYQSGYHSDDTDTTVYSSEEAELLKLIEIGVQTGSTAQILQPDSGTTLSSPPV

Row | Papp [1] [×10⁻⁶ cm/s] | IC50 [2] [µM] | IC50 [3] [µM] | IC50 [4] [µM] | SMILES
1 | 2.88 |  |  |  | O=C(Nc1cnc2ccccc2c1)c1ccccc1NCc1ccncc1
2 |  | > 10 | > 10 | > 10 | Cc1noc(NCc2ccncc2)c1C(=O)Nc1cccc(Cl)c1
3 |  | > 10 | 3.77 | > 10 | Cn1cnc(NCc2ccncc2)c1C(=O)Nc1ccc(-c2ccccc2)cc1
4 |  | > 10 | 4.29 | > 10 | Cn1cnc(NCc2ccncc2)c1C(=O)Nc1ccc(Oc2ccccc2)cc1
5 |  | 0.92 | 0.23 | 0.35 | Cn1cnc(NCc2ccncc2)c1C(=O)Nc1cnc2ccccc2c1
6 |  | 0.11 | 0.58 | 0.69 | Cn1cnc(NCc2ccncc2)c1C(=O)Nc1ccc(C(F)(F)F)c(C(F)(F)F)c1
7 |  | 1.34 | 0.75 | 1.06 | Cn1ncc(NCc2ccncc2)c1C(=O)Nc1cccc(C(F)(F)F)c1
8 |  | 0.21 | 0.28 | 0.42 | Cc1noc(NCc2ccncc2)c1C(=O)Nc1ccc(C(C)(C)C)cc1
9 |  | 0.35 | 0.44 | 0.76 | Cc1noc(NCc2ccncc2)c1C(=O)Nc1ccc(C(C)C)cc1
10 |  | > 10 | 5.73 | > 10 | Cn1cnc(NCc2ccncc2)c1C(=O)Nc1ccc2cn[nH]c2c1
11 |  | > 10 | > 10 | > 10 | Cn1ncc(NCc2cccnc2)c1C(=O)Nc1cccc(C(F)(F)F)c1
12 |  | > 10 | > 10 | > 10 | Cn1ncc(NCc2cccnc2)c1C(=O)Nc1ccc(C(F)(F)F)cc1
13 |  | 0.13 | 0.84 | 0.92 | Cn1ncc(NCc2ccncc2)c1C(=O)Nc1ccc(C(F)(F)F)c(C(F)(F)F)c1
14 |  | > 10 | 5.8 | > 10 | Cc1noc(NCc2ccncc2)c1C(=O)Nc1ccc(Cc2ccccc2)cc1
15 |  | 3.54 | 0.94 | 1.22 | Cc1noc(NCc2ccncc2)c1C(=O)Nc1cnc2ccccc2c1
16 |  | 0.13 | 0.28 | 0.31 | Cn1ncc(NCc2ccncc2)c1C(=O)Nc1ccc(C(F)(F)F)cc1
17 |  | 0.47 | 2.06 | 2.44 | Cn1ncc(NCc2ccncc2)c1C(=O)Nc1cccc(OC(F)(F)F)c1
18 |  | 0.93 | 0.97 | 1.25 | Cc1noc(NCc2ccncc2)c1C(=O)Nc1ccc(Cl)c(Cl)c1
19 |  | > 10 | 1.19 | 3.35 | COc1ccc(NC(=O)c2c(C)noc2NCc2ccncc2)cc1OC
20 |  | 1 | 4.58 | > 10 | Cn1ncc(NCc2ccncc2)c1C(=O)Nc1ccc(Cl)cc1
21 |  | 0.088 | 0.29 | 0.44 | CC(C)c1ccc(NC(=O)c2c(NCc3ccncc3)cnn2C)cc1
22 |  | > 10 | > 10 | > 10 | Cn1ncc(NCc2ccncc2)c1C(=O)Nc1ccc(-c2ccccc2)cc1
23 |  | 0.59 | 0.87 | 1.44 | Cc1cc(NC(=O)c2c(C)noc2NCc2ccncc2)ccc1C(F)(F)F
24 |  | > 10 | > 10 | > 10 | Cn1ncc(NCc2ccncc2)c1C(=O)Nc1ccc(Oc2ccccc2)cc1
25 |  | > 10 | 5.57 | > 10 | Cn1ncc(NCc2ccncc2)c1C(=O)Nc1ccc(Cc2ccccc2)cc1
26 |  | 0.091 | 0.35 | 0.51 | COc1ccc(NC(=O)c2c(NCc3ccncc3)cnn2C)cc1OC
27 |  | 0.079 | 0.21 | 0.44 | Cn1ncc(NCc2ccncc2)c1C(=O)Nc1ccc(C(F)(F)F)c(Cl)c1

Row | Papp [1] [×10⁻⁶ cm/s] | IC50 [2] [µM] | IC50 [3] [µM] | IC50 [4] [µM] | SMILES
28 |  | 0.21 | 1.12 | 1.23 | Cn1ncc(NCc2ccncc2)c1C(=O)Nc1cc(C(F)(F)F)cc(C(F)(F)F)c1
29 |  | 2.27 | 1.56 | 1.69 | Cc1noc(NCc2ccncc2)c1C(=O)Nc1cccc(C(F)(F)F)c1
30 |  | 0.55 | 0.65 | 0.79 | Cn1cnc(NCc2ccncc2)c1C(=O)Nc1cccc(C(F)(F)F)c1
31 |  | 9.6 | 1.98 | 6 | Cn1cnc(NCc2ccncc2)c1C(=O)Nc1ccc(C(F)(F)F)cc1
32 |  | 0.35 | 0.76 | 1.11 | Cn1cnc(NCc2ccncc2)c1C(=O)Nc1cccc(OC(F)(F)F)c1
33 |  | 0.18 | 0.37 | 0.56 | Cc1noc(NCc2ccncc2)c1C(=O)Nc1ccc(C(F)(F)F)cc1
34 |  | > 10 | 6.02 | > 10 | Cn1cnc(NCc2ccncc2)c1C(=O)Nc1ccc2c(c1)CN=N2
35 |  | 1.25 | 0.84 | 1.35 | Cc1ccc(NC(=O)c2c(NCc3ccncc3)ncn2C)c(F)c1
36 |  | > 10 | > 10 | > 10 | Cc1noc(NCc2ccncc2)c1C(=O)Nc1ccc(Oc2ccccc2)cc1
37 |  | > 10 | > 10 | > 10 | Cn1cnc(NCc2cccnc2)c1C(=O)Nc1cccc(C(F)(F)F)c1
38 |  | > 10 | > 10 | > 10 | Cn1cnc(NCc2cccnc2)c1C(=O)Nc1ccc(C(F)(F)F)cc1
39 |  | 0.11 | 1.15 | 1.43 | Cn1cnc(NCc2ccncc2)c1C(=O)Nc1ccc(OC(F)(F)F)cc1
40 |  | > 10 | 5.57 | > 10 | Cn1cnc(NCc2ccncc2)c1C(=O)Nc1ccc(Cc2ccccc2)cc1
41 |  | 0.74 | 0.65 | 1.12 | Cn1cnc(NCc2ccncc2)c1C(=O)NCc1ccc2c(c1)OCO2
42 |  | 1.14 | 0.28 | 0.52 | Cn1ncc(NCc2ccncc2)c1C(=O)Nc1cnc2ccccc2c1
43 |  | 0.32 | 0.56 | 1.11 | Cc1noc(NCc2ccncc2)c1C(=O)Nc1ccc(C(F)(F)F)c(Cl)c1
44 |  | > 10 | 4.23 | > 10 | Cc1noc(NCc2ccncc2)c1C(=O)Nc1ccc(C(F)(F)F)c(C(F)(F)F)c1
45 |  | 0.15 | 0.74 | 1.06 | Cn1cnc(NCc2ccncc2)c1C(=O)Nc1cc(C(F)(F)F)cc(C(F)(F)F)c1
46 |  | > 10 | 2.06 | 3.22 | Cn1ncc(NCc2ccncc2)c1C(=O)Nc1cccc(Cl)c1
47 | 5.4 |  |  |  | Cn1ncc([N+](=O)[O-])c1C(=O)O
48 |  | > 10 | 2.06 | 3.22 | Cn1cnc(NCc2ccncc2)c1C(=O)Nc1cccc(Cl)c1
49 |  | 0.102 | 0.66 | 0.93 | Cc1ccc(NC(=O)c2c(NCc3ccncc3)cnn2C)cc1C(F)(F)F
50 |  | > 10 | > 10 | > 10 | Cc1noc(NCc2ccncc2)c1C(=O)Nc1ccc(-c2ccccc2)cc1
51 |  | 0.91 | 2.12 | 3.55 | Cc1noc(NCc2ccncc2)c1C(=O)Nc1ccc(OC(F)(F)F)cc1
52 |  | 0.11 | 1.13 | 1.36 | Cn1ncc(NCc2ccncc2)c1C(=O)Nc1ccc(Cl)c(C(F)(F)F)c1
53 |  | > 10 | > 10 | > 10 | Cc1noc(NCc2ccncc2)c1C(=O)Nc1ccc(Cl)cc1
